The values that follow come from US5348977A, “Cobalt complexes as anti-cancer agents” (Warner Lambert Company, priority 1991, dated 1994).

Data set [1] is described as follows: Square wave voltammetry, peak potential of cathodic wave. It counts as physicochemical. The settings on record: vs NHE, platinum disc electrode, 0.15 M (n-Bu4 N)ClO4 in CH2 Cl2, ferrocene internal reference. An excerpt: E1/2 Peak potentials (vs NHE) of cathodic wave, determined by square wave voltammetry at a platinum disc electrode in 0.15 M (n-Bu4 N)ClO4 in CH2 Cl2 with ferrocene as an internal reference.

The test system of data set [2] is AA8 cells. In words: Growth inhibition, AA8 cells with lethally-irradiated AA8 feeder cells, aerobic or hypoxic 18 h (Table 3). It counts as cell-based, hamster. The settings on record: for IC50: AA8, aerobic, 18 h exposure, read-out: IC50 (air) AA8; for HF(air): IC50 (AA8)/IC50 (UV4), aerobic, 1080 min; for IC50 (air)/IC50 (N2) AA8: aerobic IC50 /hypoxic IC50, AA8, 18 h. As to the method:
(§1) IC50 Growth inhibition studies were performed as described in detail elsewhere (W. R. Wilson, R. F. Anderson and W. A. Denny. J. Med. Chem., 1989, 32, 23; G. J. Finlay, B. C. Baguley and W. R. Wilson. Anal. Biochem., 1984, 139, 172.), using 200 viable AA8 or 300 viable UV4 cells plus 5000 lethally-irradiated AA8 feeder cells per well in 96-well tissue culture dishes. AA8 and UV4 cells were maintained in logarithmic-phase growth in […] tissue culture flasks with subculture twice weekly by trypsinization. The growth medium was antibiotic-free Alpha MEM with 10% v/v heat-inactivated (56° C., 40 min) fetal calf serum. Doubling times were approximately 14h for AA8 and […] cells.
(§2) air/N2 ratio Ratio of IC50 values after exposure as detailed above under either aerobic (air) or hypoxic (N2) conditions (=aerobic IC50 /hypoxic IC50).
(§3) HF Ratio of IC50 values for a compound after exposure as detailed above against AA8 and UV4 cell lines (=IC50 (AA8)/IC50 (UV4)).

Data set [3] concerns UV4 cells. As to the kind of experiment: Growth inhibition, UV4 cells with lethally-irradiated AA8 feeder cells, aerobic or hypoxic 18 h (Table 3). It counts as cell-based. To be noted: aerobic IC50 /hypoxic IC50, UV4, 18 h. On the procedure: as §1, §2, §3
For data set [4], the system named is UV5 cells. In words: Growth inhibition, UV5 cells, aerobic 18 h (Table 2). It counts as cell-based. The settings on record: 18 h exposure, 1 determination. On the procedure: (§4) ([Co(Macac)2 (DCE)]ClO4) was prepared as described in Example E. Growth inhibition studies were performed as described in detail by W. R. Wilson, R. F. Anderson and W. A. Denny in J. Med. Chem., 1989 32, 23 and by G. J. Finlay, B. C. Baguley and W. R. Wilson in Anal. Biochem., 1984, 139, 172, herein specifically incorporated by reference. 200 AA8 cells in 96 well tissue culture dishes, 300 UV4 cells in 96 well tissue culture dishes, 300 UV5 cells in 96 well tissue culture dishes, 50 EMT6 cells in 96 well tissue culture dishes, 200 SCC7 cells in 96 well tissue culture dishes, 1500 FME cells in 96 well tissue culture dishes and 500 HCT-8 cells in 96 well tissue culture dishes were prepared. The cells were maintained in logarithmic-phase growth in 25 cm tissue culture flasks with subculture twice weekly by trypsinization. The growth medium was antibiotic-free Alpha MEM with 10% v/v heat-inactivated (56° C., 40 min.) fetal calf serum. Doubling times were approximately 14 hours for AAS, 16 hours for UV4, 16 hours for UV5, 10 hours for EMT6, 14 hours for SCC7, 24 hours for FME and 20 hours for HCT-8 cells. Cultures were tested for mycoplasma contamination frequently, using a cytochemical staining method (I. R. Chen, Exp. Cell Res., 1977, 104, 255). […]

For data set [5], the system named is UV4 cells. As to the kind of experiment: Growth inhibition, UV4 cells, aerobic 18 h (Table 2). It counts as cell-based. To be noted: 18 h exposure, 5 determinations. As to the method: as §4
The test system of data set [6] is AA8 cells. In words: Growth inhibition, AA8 cells, aerobic 18 h (Table 2). The settings on record: 18 h exposure, 5 determinations. It counts as cell-based, hamster. On the procedure:
as §4

The test system of data set [7] is FME cells. As to the kind of experiment: Growth inhibition, FME cells, aerobic 18 h (Table 2). It counts as cell-based, human. On the procedure: as §4
Data set [8] has as its system SCC7 cells. In words: Growth inhibition, SCC7 cells, aerobic 18 h (Table 2). The settings on record: 18 h exposure, 1 determination. It counts as cell-based. As to the method: as §4
The subject of data set [9] is HCT-8 cells. In words: Growth inhibition, HCT-8 cells, aerobic 18 h (Table 2). It counts as cell-based. The settings on record: HCT-8 (human colon carcinoma), 18 h exposure, 1 determination. As to the method:
as §4

Data set [10] has as its system EMT6 cells. As to the kind of experiment: Growth inhibition, EMT6 cells, aerobic 18 h (Table 2). It counts as cell-based. The settings on record: 18 h exposure, 6 determinations. As to the method:
as §4

One may read the IC50 as the concentration at which inhibition is half-maximal. In turn, “[Co(Etacac)2 (DCE)]Cl.2H2 O [Compound 8]” had an E1/2 in [1] of -352 mV. For the same substance, in data set [2], the IC50 came to 1560 ± 80 nM, the “HF(air)” value was found to be 21.2 ± 4.0 and the “IC50 (air)/IC50 (N2) AA8” value was determined as 1.28 ± 0.23. In addition, the “IC50 (air)/IC50 (N2) UV4” value in data set [3] is reported as 2.14 ± 0.56.

In data set [1], [Co(acac)2 (BCE)]ClO4 [Compound 1] showed an E1/2 of -308 mV. In addition, in data set [2], the IC50 turned out to be 893000 ± 161000 nM, the “HF(air)” value came out at 14.0 ± 4.3 and the “IC50 (air)/IC50 (N2) AA8” value worked out at 0.42 ± 0.06. Moreover, the “IC50 (air)/IC50 (N2) UV4” value in [3] is reported as 3.76 ± 1.46.

Turning to [Co(acac)2 (DCE)]ClO4 [Compound 6], in [1], the E1/2 is -232 mV. Besides, in data set [2], the IC50 turned out to be 1750 ± 100 nM, the “HF(air)” value is reported as 48.2 ± 9.0 and the “IC50 (air)/IC50 (N2) AA8” value is on record as 1.33 ± 0.13. In data set [3], the “IC50 (air)/IC50 (N2) UV4” value is on record as 0.85 ± 0.03.

In turn, [Co(Macac)2 (BCE)]ClO4 [Compound 2] gave an E1/2 in [1] of -420 mV. Moreover, in data set [2], the IC50 was found to be 992000 nM, the “HF(air)” value came out at 3.25 and the “IC50 (air)/IC50 (N2) AA8” value was less than 1.

Consider [Co(Etacac)2 (BCE)]ClO4 [Compound 3], for which the E1/2 in data set [1] is listed as -460 mV. Moreover, in [2], the IC50 was 139000 ± 18300 nM, the “HF(air)” value was determined as 4.8 ± 1.4 and the “IC50 (air)/IC50 (N2) AA8” value was 0.79 ± 0.24. The “IC50 (air)/IC50 (N2) UV4” value in data set [3] stood at 1.77 ± 0.75.

Turning to [Co(Pracac)2 (BCE)]ClO4 [Compound 4], the E1/2 in data set [1] was -500 mV. Further, in data set [2], the IC50 was 18500 ± 3300 nM, the “HF(air)” value came to 3.5 ± 0.7 and the “IC50 (air)/IC50 (N2) AA8” value was found to be 0.85 ± 0.35. Further, the “IC50 (air)/IC50 (N2) UV4” value in [3] is listed as 1.20 ± 0.50.

For [Co(Macac)2 (DCE)]ClO4 [Compound 7], the IC50 in data set [4] worked out at 2640 nM; in data set [5], 100 ± 20 nM; in data set [2], 2910 ± 470 nM; in [6], 4560 ± 620 nM; in [7] (FME (human breast carcinoma), aerobic, 18 h exposure, 6 determinations) it was 1300 ± 130 nM; in data set [8], 310 nM. The results for the IC50 in [9] and in data set [10] were 4440 nM and 1610 ± 210 nM, respectively. Further, the E1/2 in data set [1] is listed as -307 mV. Further, in data set [2], the “HF(air)” value amounted to 50.8 ± 3.7. In addition, the “IC50 (air)/IC50 (N2) AA8” value in data set [2] came to 2.81 ± 0.16. The “potency in human lines as compared to AA8” value in data set [7] (FME and HCT-8 versus AA8, aerobic) is listed as “higher potency (lower IC50) in both of the human lines as compared to AA8”. Besides, the “IC50 (air)/IC50 (N2) UV4” value in [3] came out at 2.03 ± 0.47.

As to [Co(Clacac)2 (BCE)]Cl [Compound 5], the E1/2 in data set [1] is reported as -132 mV. Besides, in [2], the IC50 worked out at 26100 ± 2000 nM, the “HF(air)” value was found to be 12.8 ± 3.5 and the “IC50 (air)/IC50 (N2) AA8” value worked out at 0.54 ± 0.12. For the same substance, in data set [3], the “IC50 (air)/IC50 (N2) UV4” value came to 0.92 ± 0.21.
